Where two headings read alike, the source gives them in different places.
How the values were obtained:
[1] = Cyclic voltammetry and kinetic analysis on glassy carbon electrode; type: physicochemical; conditions: for E^0 / Heterogenous Reduction Rate Constant (k^0) / Diffusion Coefficient (Do): glassy carbon electrode
Description: Cyclic voltammetry was conducted using a Gamry Interface 1000 potentiostat, an Ag/AgCl aqueous reference electrode (3 M NaCl filling solution), a Pt wire counter electrode, and a 3-mm-diameter glassy carbon electrode. Half-cell experiments were conducted on a solution containing 5 mM K[Cr(PDTA)], 5 mM K4Fe(CN)6, and 0.125 M K2B4O7 at pH 9.
For an irreversible reaction, the peak current, ip, is given by equation (1).
[formula] where ip is in amperes, A is the electrode area (cm^2), CO° is the bulk concentration of oxidant (moles cm^−3), v is the potential sweep rate (V s^−1), DO is the diffusion coefficient of the oxidant, α is the charge transfer coefficient, and na is the number of […] involved in the rate-determining step. This equation reduces, at 25° C. to equation (2). ip=2.99*10^5n(αna)^1/2ACO^0DO^1/2v^1/2 (2) ip vs. v^1/2 was plotted, giving a straight line, with the slope being proportional to DO. Assuming an αna value of ½ allowed for the solving of DO. For a totally irreversible peak, the peak potential, Ep, is a function of scan rate, the difference between Ep and the formal potential, E^0′, being related to the standard heterogeneous rate constant, k°. The peak current can be expressed as show in equation (3).
[formula] Ln(ip) vs. (Ep−E°′), at different scan rates was plotting, with the intercept being proportional to and allowing solving for k°. E°′ was found in literature to be −1.31 V vs Ag/AgCl. The bulk concentration was 0.005 M, and na was 1 as there is only 1 electron being transferred. The area of the electrode is 0.0707 cm^2 from a 3 mm diameter glassy carbon electrode. Scan rates were done at 25, 50, 100, 200, and 500 mV s^−1. The slope of ip vs. v^1/2 was 0.0747, and the intercept of ln(ip) vs. (Ep−E°′) was −13.527.
Half-cell measurements were made using cyclic voltammetry (CV), which was conducted using a Gamry Interface 1000 potentiostat, an Ag/AgCl aqueous reference electrode (3 M NaCl filling solution), a Pt wire counter electrode, and a 3-mm-diameter glassy carbon working electrode, unless otherwise noted. Solutions were first sparged with an inert gas, for example N2, helium, neon, or argon, or combinations thereof, for at least 15 minutes and then kept under a blanket of an inert gas, such as N2, helium, neon, or argon, or combinations thereof, while tests were performed. All testing was performed at ambient temperatures. For carbon paper cyclic voltammetry experiments, the same setup was used as with the glassy carbon electrode, but the working electrode was a piece of carbon paper. For all chromium complexes and Fe(CN)6 solution 5 mM solutions were utilized for all CV experiments except those utilizing carbon paper electrodes which utilized 50 mM solutions. Other metal chelate complexes have concentrations that are specified in the figure captions.
Cyclic voltammetry (CV) was performed to compare the electrochemical behavior of FeDTPA and CrPDTA with their respective unchelated metal ions. […] Compared to their non-chelated counterparts, a greater electrochemical reversibility is observed in the chelated over the non-chelated metals (FIG. 32).

[2] = cited from earlier work; for reduction potential E^0: literature or previously reported values
[3] = cited from earlier work
[4] = Stability of iron-chelate complexes at pH 9
[5] = Maximum solubility at room temperature (saturated or concentrated solution, UV-Vis at 506 nm; bulk electrolysis for K2FeDTPA); type: physicochemical
Description: A saturated solution of KCrPDTA was prepared by dissolving KCrPDTA crystals in minimal DI water at room temperature such that crystals remain undissolved. The solution was agitated for 1 day. […] For the Na^+ cation with CrEDTA, the solubility was determined from a concentrated impure solution containing 3:1 NaCl. […] For the K2 with Fe-DTPA, the solubility was determined from a concentrated impure solution containing 3:1 KCl.

[6] = cited from earlier work; remark: listed apart in the source

E^0 [1] | Compound | Heterogenous Reduction Rate Constant (k^0) [1] | Binding Constant (Fe^+2) [3] | Binding Constant (Fe^+3) [3] | Stability at pH 9 [4] | further results
– | O=C(O)CN(CCN(CC(=O)O)CC(=O)O)CC(=O)O.[Cr] [CrEDTA] | – | – | – | – | Cr^3+/2+ reduction potential ([2]; near neutral pH): −0.99 V vs. SHE
– | O=C(O)CN(CCN(CC(=O)O)CC(=O)O)CCN(CC(=O)O)CC(=O)O [DTPA, diethylenetriaminepentaacetic acid] | – | 16.55 | 28.60 | – | –
– | [Fe+2].c1ccc(-c2ccccn2)nc1.c1ccc(-c2ccccn2)nc1.c1ccc(-c2ccccn2)nc1 [Fe(bpy)3] | – | 4.2 | 16.29 | Insoluble | reduction potential E^0 [2]: +0.903 V vs. Ag/AgCl
0.55 V vs Ag/AgCl | [Cl][Fe]([Cl])[Cl] [FeCl3] | 3.4 ×10⁻⁶ cm/s | – | – | – | Diffusion Coefficient (Do) [1]: 7.55 10^−6 cm^2 s^−1; heterogeneous reduction rate constant k^0 ([1]; glassy carbon, 3 M HCl): 3.4e-06 cm/s; reduction potential E^0 [2]: 0.55 V vs. Ag/AgCl
−0.15 V vs Ag/AgCl | O=C([O-])CN(CCN(CC(=O)[O-])CC(=O)[O-])CCN(CC(=O)[O-])CC(=O)[O-].[Fe+3].[K+].[K+] [FeDTPA K2] | 15.5 ×10⁻⁶ cm/s | – | – | – | maximum solubility / highest concentration cycled ([5]; pH 9, 20° C., limited by viscosity): 1350 mM; Max Solubility at RT ([5]; room temperature): 1350 mM; Diffusion Coefficient (Do) [1]: 2.41 10^−6 cm^2 s^−1
– | O=C([O-])CN(CCN(CC(=O)[O-])CC(=O)[O-])CC(=O)[O-].[Fe+3].[Na+] [FeEDTA] | – | 14.33 | 25.10 | Dimerizes | –
– | O=C([O-])CN(CCO)CCN(CC(=O)[O-])CC(=O)[O-].[Fe+3] [FeHEDTA] | – | 12.2 | 19.7 | Dimerizes | –
– | Mn EDTA | – | – | – | – | RFB Electrolyte solubility ([6]; pH 3): 400 mM; RFB Electrolyte solubility ([6]; pH 4.5): 400 mM; RFB Electrolyte solubility ([6]; pH 6): 400 mM; RFB Electrolyte solubility ([6]; pH 6.6): 400 mM; RFB Electrolyte solubility ([6]; pH 8.0): 400 mM

Compound | E^0 [1] | Heterogenous Reduction Rate Constant (k^0) [1] | Binding Constant (Fe^+2) [3] | Binding Constant (Fe^+3) [3] | Stability at pH 9 [4] | further results
[Cl][Cr]([Cl])[Cl] [CrCl3] | −0.64 V vs Ag/AgCl | 10 ×10⁻⁶ cm/s | – | – | – | –

Source: patent publication US12155103B2, “Electrochemical storage devices comprising chelated metals” (The Regents of the University of Colorado, a body corporate, priority 2019, dated 2024)
